pIC50: −log10 of the molar value. Calls of active or inactive are those of the source. The rule behind the calls is not given here.
Key:
[1] = biological target: Dual specificity mitogen-activated protein kinase kinase 2 (Homo sapiens, UniProt P36507); assay: Inhibition of recombinant full length human His-tagged MEK2 expressed in baculovirus expression system using ERK K52R dead variant as substrate preincubated for 20 mins followed by incubation with 33P-ATP for 2 hrs by hotspot kinase assay
[2] = biological target: von Hippel-Lindau disease tumor suppressor/Dual specificity mitogen-activated protein kinase kinase 2 (Homo sapiens) (UniProt P36507+P40337); assay: Protac activity against VHL/MEK2 in human SK-MEL-28 cells harboring with BRAF V600E variant assessed as degradation of MEK2 at 3 to 5 uM after 24 hrs by Western blot analysis; type: cell-based
Chain of von Hippel-Lindau disease tumor suppressor/Dual specificity mitogen-activated protein kinase kinase 2 (Homo sapiens) (P36507 whole entry, looked up): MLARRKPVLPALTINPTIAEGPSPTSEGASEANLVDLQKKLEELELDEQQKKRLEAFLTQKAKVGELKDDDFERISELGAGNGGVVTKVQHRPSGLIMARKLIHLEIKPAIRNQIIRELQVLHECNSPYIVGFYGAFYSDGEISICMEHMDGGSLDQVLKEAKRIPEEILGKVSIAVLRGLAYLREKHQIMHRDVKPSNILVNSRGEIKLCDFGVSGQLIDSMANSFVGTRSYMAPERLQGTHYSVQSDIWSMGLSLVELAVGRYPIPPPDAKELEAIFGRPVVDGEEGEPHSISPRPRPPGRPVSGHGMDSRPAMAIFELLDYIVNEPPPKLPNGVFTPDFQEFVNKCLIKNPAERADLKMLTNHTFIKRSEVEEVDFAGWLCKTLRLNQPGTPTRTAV
Chain of von Hippel-Lindau disease tumor suppressor/Dual specificity mitogen-activated protein kinase kinase 2 (Homo sapiens) (P40337 whole entry, looked up): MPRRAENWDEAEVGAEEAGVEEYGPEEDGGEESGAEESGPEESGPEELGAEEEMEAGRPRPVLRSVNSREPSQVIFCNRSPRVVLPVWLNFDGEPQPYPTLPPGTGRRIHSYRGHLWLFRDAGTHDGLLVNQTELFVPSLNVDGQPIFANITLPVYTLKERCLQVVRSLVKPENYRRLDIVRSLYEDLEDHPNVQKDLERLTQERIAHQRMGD

[3] = biological target: T1, von Hippel-Lindau disease tumor suppressor/Dual specificity mitogen-activated protein kinase kinase 1 (Homo sapiens) (UniProt Q02750+P40337); assay: Protac activity against VHL/MEK1 in human HT-29 cells harboring with BRAF V600E variant assessed as degradation of MEK1 by measuring reduction in MEK1 protein level at 0.1 to 0.3 uM after 2 hrs by Western blot analysis; type: cell-based
T1 sequence (P40337 whole entry, looked up): as above
T1 sequence (Q02750 whole entry, looked up): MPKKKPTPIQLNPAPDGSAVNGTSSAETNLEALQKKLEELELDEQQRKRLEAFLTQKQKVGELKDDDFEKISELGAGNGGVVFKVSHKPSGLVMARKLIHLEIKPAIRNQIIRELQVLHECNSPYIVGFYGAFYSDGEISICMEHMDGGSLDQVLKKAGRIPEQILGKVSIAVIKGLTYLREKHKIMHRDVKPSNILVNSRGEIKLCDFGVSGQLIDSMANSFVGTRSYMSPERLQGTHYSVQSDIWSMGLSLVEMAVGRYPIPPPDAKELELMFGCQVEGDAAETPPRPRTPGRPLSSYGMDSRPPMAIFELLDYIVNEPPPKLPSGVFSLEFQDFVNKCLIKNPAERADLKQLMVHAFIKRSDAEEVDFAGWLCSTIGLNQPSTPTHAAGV

[4] = biological target: T1, von Hippel-Lindau disease tumor suppressor/Dual specificity mitogen-activated protein kinase kinase 1 (Homo sapiens); assay: Protac activity against VHL/MEK1 in human SK-MEL-28 cells harboring with BRAF V600E variant assessed as degradation of MEK1 by measuring reduction in MEK1 protein level at 0.1 to 0.3 uM after 2 hrs by Western blot analysis; type: cell-based
[5] = biological target: von Hippel-Lindau disease tumor suppressor/Dual specificity mitogen-activated protein kinase kinase 2/Dual specificity mitogen-activated protein kinase kinase 1 (Homo sapiens) (UniProt P36507+Q02750+P40337); assay: Protac activity against VHL/MEK1/2 in human HT-29 cells harboring with BRAF V600E variant assessed as reduction in phosphorylation of MEK at S218/222 residues at 0.1 to 0.3 after >= 2 hrs by Western blot analysis; type: cell-based
Chain of von Hippel-Lindau disease tumor suppressor/Dual specificity mitogen-activated protein kinase kinase 2/Dual specificity mitogen-activated protein kinase kinase 1 (Homo sapiens) (P36507 whole entry, looked up): as the sequence (P36507 whole entry, looked up) above
Chain of von Hippel-Lindau disease tumor suppressor/Dual specificity mitogen-activated protein kinase kinase 2/Dual specificity mitogen-activated protein kinase kinase 1 (Homo sapiens) (P40337 whole entry, looked up): as the sequence (P40337 whole entry, looked up) above
Chain of von Hippel-Lindau disease tumor suppressor/Dual specificity mitogen-activated protein kinase kinase 2/Dual specificity mitogen-activated protein kinase kinase 1 (Homo sapiens) (Q02750 whole entry, looked up): as the sequence (Q02750 whole entry, looked up) above

[6] = biological target: T1, von Hippel-Lindau disease tumor suppressor/Dual specificity mitogen-activated protein kinase kinase 1 (Homo sapiens); assay: Protac activity against VHL/MEK1 in human HT-29 cells harboring with BRAF V600E variant assessed as degradation of MEK1 by measuring MEK1 protein level at 0.3 uM pretreated with MEK1/2 inhibitor, PD0325901 for 2 hrs followed by incubation with compound for 10 hrs by Western blot analysis; type: cell-based
[7] = biological target: T1, von Hippel-Lindau disease tumor suppressor/Dual specificity mitogen-activated protein kinase kinase 1 (Homo sapiens); assay: Protac activity against VHL/MEK1 in human SK-MEL-28 cells harboring with BRAF V600E variant assessed as degradation of MEK1 by measuring MEK1 protein level at 0.3 uM pretreated with VHL ligand, VH 032 for 2 hrs followed by incubation with compound for 10 hrs by Western blot analysis; type: cell-based
[8] = biological target: T1, von Hippel-Lindau disease tumor suppressor/Dual specificity mitogen-activated protein kinase kinase 1 (Homo sapiens); assay: Protac activity against VHL/MEK1 in human HT-29 cells harboring with BRAF V600E variant assessed as degradation of MEK1 by measuring reduction in MEK1 protein level at 0.1 uM after 10 hrs by LC-MS based Volcano plot analysis; type: cell-based
SK-MEL-28 = assay: Antiproliferative activity against human SK-MEL-28 cells assessed as reduction in cell growth after 3 days by MTT assay; type: functional
[9] = Ratio of Plasma concentration in Swiss albino mouse at 50 mg/kg, ip measured after 8 hrs to GI50 for antiproliferative activity against human COLO205 cells; type: organism-based; settings: in vivo

Chain of Dual specificity mitogen-activated protein kinase kinase 2 (P36507 whole entry): as the sequence (P36507 whole entry, looked up) above

Cc1ncsc1-c1ccc([C@H](C)NC(=O)[C@@H]2C[C@@H](O)CN2C(=O)[C@@H](NC(=O)CCCCCCCCCCNCCCONC(=O)c2ccc(F)c(F)c2Nc2ccc(I)cc2F)C(C)(C)C)cc1
pIC50 [1]: 6.23
Activity [2]: Active
Activity [3]: Active
Activity [4]: Active
Activity [5]: Active
Activity [6]: inactive
Activity [7]: inactive
Activity [8]: Active
growth inhibition (GI) (SK-MEL-28): Dose-dependent effect
GI50 (SK-MEL-28; SK-MEL-28, 72 h): 83 nM
Ratio [9]: 3 to 20
